Reference: PMC9786614, “Nerve Targeting via Myelin Protein Zero and the Impact of Dimerization on Binding Affinity” (Molecules, 2022)
“Also recorded” adds a separate entry of the source. Like-named read-outs stand apart in the source and are kept apart here. Residues, ends and D or L forms follow the SMILES beside them. *: point of attachment. X2 = CC1(C)C(=C/C=C/C=C/C2=[N+](CCCCS(=O)(=O)O)c3ccc(S(=O)(=O)[O-])cc3C2(C)C)N(CCCCCC(=O)NCCN2C(=O)CC(*)C2=O)c2ccc(S(=O)(=O)O)cc21

What was measured:
[1] = not given; remark: listed apart in the source
[2] = not given; remark: listed apart in the source
[3] = not given; remark: listed apart in the source
[4] = target: T1, myelin protein zero (P0) (Rattus norvegicus, UniProt P06907); assay: Saturation binding by flow cytometry on P0-expressing Schwannoma cells; conditions: flow cytometry
T1 construct: RT4-D12 Schwannoma cells were selected for in vitro experiments based on their origin and their specific P0-expressing properties; endogenous in cells; host or cells: RT4-D12 Schwannoma cells
T1 sequence (P06907 30-248): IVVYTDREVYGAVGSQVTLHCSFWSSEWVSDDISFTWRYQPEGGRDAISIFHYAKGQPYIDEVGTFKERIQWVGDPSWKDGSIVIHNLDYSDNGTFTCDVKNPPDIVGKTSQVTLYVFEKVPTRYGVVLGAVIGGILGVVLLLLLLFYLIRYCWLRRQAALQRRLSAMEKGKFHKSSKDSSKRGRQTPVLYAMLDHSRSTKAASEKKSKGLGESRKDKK
Method: RT4-D12 Schwannoma cells were selected for in vitro experiments based on their origin and their specific P0-expressing properties.
All chemicals were received from Actu-All Chemical (Oss, The Netherlands), Sigma Aldrich (St. Louis, MO, USA), Tokyo Chemical Industry (Tokyo, Japan), Biosolve BV (Valkenswaard, The Netherlands), VWR Chemicals (Solon, OH, USA) and used without further purification. DMF and DMSO were dried over four Å molecular sieves at least for 24 h prior to use. Preparative high-pressure liquid chromatography (prep-HPLC) was performed on a Waters HPLC system (Waters Chromatography B.V., Etten-Leur, The Netherlands) using a 2545 quaternary gradient module pump and a 2489 UV detector. Dr. Maisch ReproSil-Pur 120 C18-AQ 10 μM (250 mm × 20 mm) column (Dr. Maisch HPLC GmbH, Ammerbuch-Entringen, Germany) was applied operating flow rate of 12 mL/min. HPLC analysis was carried out on Waters Alliance 2690 using a Waters symmetry C18 column (2.1 × 150 mm) with a gradient of 0.1% TFA in H2O/MeCN 95:5 to 0.1% TFA in H2O/MeCN 5:95 in 17 min (0.3 mL/min). Mass spectrometry was performed on a Microflex LT/SH MALDI-TOF mass spectrometer (Bruker, Billerica, MA, USA). Lyophilization was performed with a VaCo 2-II lyophilizer (Zirbus technology GmbH, Bad Grund (Harz), Germany). Absorption spectrometry was performed using a UV1280 UV–vis spectrometer (Shimadzu, Kyoto, Japan), and fluorescence spectrometry was performed using an LS55 (Perkin Elmer, Waltham, MA, USA). The fluorescence spectra at different temperatures were measured on an Agilent Cary Eclipse (Agilent Cary Eclipse, Santa Clara, CA, USA). NMR spectra were measured on a Bruker Avance 300 (Bruker, Billerica, MA, USA) operating at 300 MHz for 1 H and 75.00 MHz for 13 C, using the residual solvents (CDCl3 and DMSO-d6) as internal references, and on a Bruker Advance III spectrometer operating at 600 MHz for 1H and equipped with a 2.5 mm PH SEI probe (Bruker, Billerica, MA, USA). For photostability, a prototype D-Light P surgical laparoscope (KARL STORZ, Tuttlingen, Germany) was used. Fluorescence confocal imaging was performed using a SP8 WLL confocal microscope (Leica Microsystems, Wetzlar, Germany). Obtained images were analyzed using Leica Confocal Software (Leica Microsystems). Mean fluorescence intensity values per sample were measured using a LSRII flow cytometer (BD Biosciences, Franklin Lakes, NJ, USA) with APC-A settings (635 nm laser and 750 nm long-pass filter). The binding constant (KD) of the normalized geometric means were fitted with equations in the Prism 5 software (GraphPad, San Diego, CA, USA). Statistical evaluation (Student’s t-test) for all properties was performed in the Prism 5 software. […]
Flow cytometric analysis was performed using RT4-D12 Schwannoma cells after incubation with either Cy5-P0_101–125 or Cy5-(P0_101–125)2. […] Cells were gated on Forward Scatter and Side Scatter, and a minimum of 10,000 viable cells were analyzed per sample. […]
For evaluation of the differences in signal intensity per concentration between Cy5-P0_101–125 and Cy5-(P0_101–125)2 (5–1000 nM), the mean signal intensity of Cy5-P0_101–125 at 1000nM was set at 100%, and intensities measured at other tracer concentrations or for Cy5-(P0_101–125)2 were calculated as % increase or decrease from this point. The KD values of the evaluated peptides were calculated using the “Binding-Saturation, One site—Total” nonlinear regression equation, as described previously.

[5] = test system: RT4-D12 Schwannoma cells; assay: Fluorescence confocal microscopy of P0 staining; type: cell-based; conditions: 1 h at 4 °C
Method: RT4-D12 Schwannoma cells were trypsinized and seeded onto 35 mm culture dishes that contained a glass insert (MatTek co, Emu Plains, New South Wales, Australia) two days prior to the imaging experiment. Then, 0.5–1000 nM Cy5-P0_101–125 or Cy5-(P0_101–125)2 was added one hour prior to imaging (incubation at 4 °C; n = 3 per tracer). Peptide solutions were sonicated for 20 s prior to addition to prevent aggregation of the peptide in solution. Lysotracker (lysotracker green; 2 µL/mL DND-26, Thermo Fisher, Waltham, MA, USA) and Hoechst (33,342, 1 mg/mL, 1:500, Thermo Fisher) were added to the to provide staining of lysosomes and the nucleus, respectively.
Images were acquired following Cy5 excitation at 633 nm. Emission was collected between 650–700 nm. For visualization of the lysosomes in the cells, a 488 nm laser was used for excitation, while emission was collected between 500–550 nm. Hoechst was excited at 405 nm, and emission was collected between 410–460 nm. Fluorescence confocal images were acquired using a Leica SP8 WL at sequential settings and 63× magnification. Image analysis was performed using Leica Confocal Software (Leica Microsystems). Semi-quantitative analysis of the Cy5 signal intensity was performed using the quantification tool in Fiji software according to previously described methods.

[6] = test system: serum protein; assay: Serum protein binding; type: in vitro ADME; conditions: serum; protocol modified from Hensbergen et al. [34]; mean ± spread
Method: (§1) The molar extinction coefficient (ε), quantum yield (QY), brightness, lipophilicity, serum protein binding, photo- and chemical stability, and stacking behavior were determined according to a slight modification of the protocol put forward by Hensbergen et al.. Sulfonate-(SO3)Cy5(SO3)-COOH [27] was measured and used as a control for QY.

[7] = Photostability (photobleaching); type: physicochemical; conditions: illumination in 5 min cycles, 30 min in total, Storz D-Light P system at 50 mm, fluorescence read-out
Method: as §1
For photostability measurements, the cuvettes were sealed and illuminated for 5 min (30 min in total) by a modified Storz D-Light P fluorescence imaging system at a distance of 50 mm in a dark environment. After each illumination cycle, the fluorescence intensity was determined.

[8] = Stacking behavior (absorbance spectra, dilution series); type: physicochemical; conditions: absorbance spectra in water, dilution series 8 μM to 0.5 μM, normalized
Method: as §1
To determine the stacking behavior of the mono- and bi-labeled compounds and their corresponding dyes, a dilution series of Cy5-(P0_101–125)2 and Cy5-P0_101–125 were made, consisting of the dye concentrations ranging from 8 μM to 0.5 μM.
Normalization of the data set for stacking behavior was performed using Equation (1):(1) x(normalized)=(x−xmin)/range of x where range of x= xmax−xmin .

[9] = not given; remark: listed apart in the source
[10] = Serum protein binding; type: in vitro ADME; conditions: protocol modified from Hensbergen et al. [34]; mean ± spread
Method: as §1

[11] = Lipophilicity logP(o/w); type: physicochemical; conditions: octanol/water; protocol modified from Hensbergen et al. [34]; mean ± spread
Method: as §1

[12] = Stability towards glutathione; type: physicochemical; conditions: 2 mM compound mixed 1:1 with 4 mM reduced glutathione, 0.1 M HEPES pH 7.4 (N2 sparged), 37 degrees, amount relative to t = 0
Method: For the stability towards glutathione, which is used as a measure of stability towards thiols and amines in vivo, 125 µL of a 2 mM solution of the compound in (0.1 M HEPES pH 7.4, pre-sparged with N2) was added to 125 µL of a 4 mM solution of reduced glutathione in 0.1M HEPES pH 7.4 (pre-sparged with N2). The solutions were mixed and then placed in a sample manager. A sample was analyzed at 37 degrees over 6 h in total to determine the amount of compound relative to t = 0.

[13] = free dye; previously reported; ref Spa et al. [27]; cited from earlier work
Text: Table 1 Chemo- and photophysical properties of mono-labeled Cy5-P0_101–125 and bi- labeled Cy5-(P0_101–125)2 and corresponding free cyanine dyes. | column: Sulfonate-(SO3)Cy5(SO3)-COOH *

Q: For `CC[C@H](C)[C@H](NC(=O)[C@H](CC(=O)O)NC(=O)[C@@H]1CCCN1C(=O)[C@@H]1CCCN1C(=O)[C@H](CC(N)=O)NC(=O)[C@H](CCCCN)NC(C)=O)C(=O)N[C@H](C(=O)NCC(=O)N[C@@H](CCCCN)C(=O)N[C@H](C(=O)N[C@@H](CO)C(=O)N[C@@H](CCC(N)=O)C(=O)N[C@H](C(=O)N[C@H](C(=O)N[C@@H](CC(C)C)C(=O)N[C@@H](Cc1ccc(O)cc1)C(=O)N[C@H](C(=O)N[C@@H](Cc1ccccc1)C(=O)N[C@@H](CCC(=O)O)C(=O)N[C@@H](CCCCN)C(=O)N[C@H](C(=O)N1CCC[C@H]1C(=O)N[C@H](C(=O)N[C@@H](CCCNC(=N)N)C(=O)N[C@@H](Cc1ccc(O)cc1)C(=O)N[C@@H](CSC1CC(=O)N(CCNC(=O)CCCCCN2C(=C/C=C/C=C/C3=[N+](CCCCS(=O)(=O)O)c4ccc(S(=O)(=O)[O-])cc4C3(C)C)C(C)(C)c3cc(S(=O)(=O)O)ccc32)C1=O)C(N)=O)[C@@H](C)O)C(C)C)C(C)C)[C@@H](C)O)C(C)C)[C@@H](C)O)C(C)C` (some centres unmarked) [Cy5-P0_101–125] (Ac-KNPPDIVGKTSQVTLYVFEKVPTRYC(X2)-NH2), which stokes shift is on record?
A: Its stokes shift is 21 nm.

Q: What about the λEm in H2O/PBS [1] of the same compound?
A: Its λEm in H2O/PBS is 671 nm.

Q: What about the λex in H2O/PBS [2] of the same compound?
A: The λex in H2O/PBS was 650 nm.

Q: And the Brightness in PBS [3]?
A: Its Brightness in PBS is 55.7 M⁻¹ cm⁻¹.

Q: What about the Nonspecific binding ([4]; saturation binding fit, RT4-D12 cells) of the same compound?
A: The Nonspecific binding was 0.020.

Q: And the Kd ([4]; saturation binding, RT4-D12 Schwannoma cells, 0–2000 nM tracer in 0.1% BSA in PBS, 1 h at 4 °C, triplicate, One site—Total fit)?
A: The Kd was 105 nM.

Q: What about the “P0-related staining at 100 nM tracer” value [5] of the same compound?
A: The value was “Only a faint P0-related signal”.

Q: What about the fraction unbound [6] of the same compound?
A: Its fraction unbound is 0.11.

Q: And the “Photobleaching, %” value [7]?
A: Its value is 94%.

Q: And the “stacking behavior (dye stacking / aggregation)” value [8]?
A: Its value is “higher “shoulder peak”; also recorded: typical “stacking shoulder” appears only for a mono-labeled Cy5-P0_101–125 at higher concentration”.

Q: What about the loss of fluorescence intensity with temperature increase [9] of the same compound?
A: Its loss of fluorescence intensity with temperature increase is 70%.

Q: With “COOH-(SO3)Cy5(SO3)-COOH [reference compound]” as the compound, how does the “Serum protein binding, %” value [10] read?
A: Its value is 70 ± 4%.

Q: And the “logP(o/w)” value [11]?
A: Its value is −1.62 ± 0.01.

Q: And the “Glutathione stability (at 6 h), %” value [12]?
A: The value was 95%.

Q: And the “Photobleaching, %” value [7]?
A: The value was 95%.

Q: For Sulfonate-(SO3)Cy5(SO3)-COOH, which “Glutathione stability (at 6 h), %” value [13] is on record?
A: Its value is 95%.

Q: And the Net charge [13]?
A: The Net charge was −2.

Q: And the “Photobleaching, %” value [13]?
A: The value was 93%.

Q: And the “Serum protein binding, %” value [13]?
A: The value was 49 ± 8%.

Q: What about the “logP(o/w)” value [13] of the same compound?
A: The value was −1.42 ± 0.00.
